Source: patent publication US8163750B2, “Fluorene derivatives, compositions containing the same and use thereof as inhibitors of the protein chaperone HSP 90” (Sanofi-Aventis, priority 2006, dated 2012)

Legend:
Hsp82 = Hsp82 (Saccharomyces cerevisiae, UniProt P02829); experiment: Hsp82 ATPase activity, pyruvate kinase/lactate dehydrogenase enzymatic coupling system; assay type: biochemical; conditions: PK/LDH coupled kinetic method, NADH absorbance 340 nm, 1 μM Hsp82, 250 μM ATP, 37° C.
Excerpt: The formation of ADP due to the ATPase activity of Hsp82 was utilized for developing another method of evaluating the enzymatic activity of this enzyme by the application of an enzymatic coupling system involving pyruvate kinase (PK) and lactate dehydrogenase (LDH). In this spectrophotometric method of the kinetic type, PK catalyses the formation of ATP and pyruvate from phosphoenol-pyruvate (PEP) and ADP produced by HSP82. The pyruvate formed, a substrate of LDH, is then converted to lactate in the presence of NADH. In this case, the decrease in the concentration of NADH, measured from the decrease in absorbance at a wavelength of 340 nm, is proportional to the concentration of ADP produced by HSP82. The test products are incubated in a reaction volume of 100 μl of buffer composed of 100 mM Hepes-NaOH (pH 7.5), 5 mM MgCl2, 1 mM DTT, 150 mM KCl, 0.3 mM NADH, 2.5 mM PEP and 250 μM ATP. This mixture is preincubated at 37° C. for 30 min before adding 3.77 units of LDH and 3.77 units of PK. The reaction is initiated by adding the product to be evaluated, at various concentrations, and Hsp82, at a concentration of 1 μM. Measurement of the enzymatic activity of Hsp82 is then performed continuously in a microplate reader, at 37° C., at a wavelength of 340 nm. The initial rate of the reaction is found by measuring the gradient of the tangent at the origin of the curve that is recorded. The enzymatic activity is expressed in μM of ADP formed per minute. The effect of the various products tested is expressed as percentage inhibition of ATPase activity according to the following code: • A: IC50<1 μM • B: 1 μM<IC50<10 μM • C: 10 μM<IC50<100 μM

Sequence of Hsp82 (P02829 whole entry): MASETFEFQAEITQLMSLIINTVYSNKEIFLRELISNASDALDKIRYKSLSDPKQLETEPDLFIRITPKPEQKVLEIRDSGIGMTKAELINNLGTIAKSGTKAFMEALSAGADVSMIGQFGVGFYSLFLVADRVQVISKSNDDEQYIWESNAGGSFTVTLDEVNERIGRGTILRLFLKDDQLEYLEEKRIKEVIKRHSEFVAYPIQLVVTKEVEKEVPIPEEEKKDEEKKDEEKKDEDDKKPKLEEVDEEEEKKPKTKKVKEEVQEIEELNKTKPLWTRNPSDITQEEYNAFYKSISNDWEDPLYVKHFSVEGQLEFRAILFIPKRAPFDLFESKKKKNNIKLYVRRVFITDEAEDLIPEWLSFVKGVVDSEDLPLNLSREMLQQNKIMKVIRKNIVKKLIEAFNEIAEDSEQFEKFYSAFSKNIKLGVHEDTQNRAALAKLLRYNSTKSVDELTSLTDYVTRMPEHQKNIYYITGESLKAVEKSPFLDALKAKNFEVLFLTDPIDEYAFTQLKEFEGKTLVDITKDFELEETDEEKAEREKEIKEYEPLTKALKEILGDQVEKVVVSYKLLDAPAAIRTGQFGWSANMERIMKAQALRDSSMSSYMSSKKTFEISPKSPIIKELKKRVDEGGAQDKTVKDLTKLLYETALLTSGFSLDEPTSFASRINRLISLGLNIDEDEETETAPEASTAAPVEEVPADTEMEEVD

| Structure (SMILES) | IC50 (Hsp82) [µM] | melting point [°C] |
| --- | --- | --- |
| O=C(NC1c2ccccc2-c2c(-c3cnc4ccccc4c3)cccc21)c1ncnc2[nH]ccc12 (racemic) [Example 11, [4-(quinolin-3-yl)-9H-fluoren-9(R,S)-yl]-amide of 7H-pyrrolo[2,3-c]pyrimidine-4-carboxylic acid] | < 1 |  |
| O=C(NC1c2ccccc2-c2c(-c3cnc4ccccc4n3)cccc21)c1ccnc2[nH]ccc12 (racemic) [Example 12, [4-(quinoxalin-2-yl)-9H-fluoren-9(R,S)-yl]-amide of 1H-pyrrolo[2,3-b]pyridine-4-carboxylic acid] | 1 to 10 |  |
| O=C(NC1c2ccccc2-c2c(C3=Nc4ccccc4OC3)cccc21)c1ccnc2[nH]ccc12 (racemic) [Example 10, [4-(1,4-benzoxazin-2H-3-yl)-9H-fluoren-9(R,S)-yl]-amide of 1H-pyrrolo[2,3-b]pyridine-4-carboxylic acid] | 1 to 10 |  |
| O=C(NC1c2ccccc2-c2c(-c3cc4ccccc4o3)cccc21)c1ccnc2[nH]ccc12 (racemic) [Example 2, [4-(benzofuran-2-yl)-9H-fluoren-9(R,S)-yl)]-amide of 1H-pyrrolo[2,3-b]pyridine-4-carboxylic acid] | 1 to 10 | > 260 |
| O=C(NC1c2ccccc2-c2c(-c3cnc4ccccc4c3)cccc21)c1c(Br)cnc2[nH]cnc12 (racemic) [Example 13, [4-(quinolin-3-yl)-9H-fluoren-9(R,S)-yl]-amide of 6-bromo-3H-imidazo[4,5-b]pyridine-7-carboxylic acid] | < 1 |  |
| O=C(NC1c2ccccc2-c2c(-c3cncnc3)cccc21)c1ccnc2[nH]ccc12 (racemic) [Example 7, [4-(pyrimidin-5-yl)-9H-fluoren-9-(R,S)yl]-amide of 1H-pyrrolo[2,3-b]pyridine-4-carboxylic acid] | < 1 | > 260 |
| Nc1ncc(Cl)c(C(=O)NC2c3ccccc3-c3c(-c4cnc5ccccc5c4)cccc32)n1 (racemic) [Example 15, [4-(quinolin-3-yl)-9H-fluoren-9(R,S)-yl]-amide of 2-amino-5-chloro-pyrimidine-4-carboxylic acid] | < 1 |  |
| O=C(NC1c2ccccc2-c2c(-c3cnc4[nH]ccc4c3)cccc21)c1ccnc2[nH]ccc12 (racemic) [Example 17, [4-(1H-pyrrolo[2,3-b]pyridin-5-yl)-9H-fluoren-9(R,S)-yl]-amide of 1H-pyrrolo[2,3-b]pyridine-4-carboxylic acid] | < 1 |  |
| O=C(NC1c2ccccc2-c2c(-c3nc4ccccc4o3)cccc21)c1ccnc2[nH]ccc12 (racemic) [Example 6, [4-(benzoxazol-2-yl)-9H-fluoren-9-(R,S)-yl]-amide of 1H-pyrrolo[2,3-b]pyridine-4-carboxylic acid] | < 1 | > 260 |

The remaining lines, values ahead:

| IC50 (Hsp82) [µM] | melting point [°C] | Structure (SMILES) |
| --- | --- | --- |
| 1 to 10 | > 260 | O=C(NC1c2ccccc2-c2c(-c3ccc(F)nc3)cccc21)c1ccnc2[nH]ccc12 (racemic) [Example 4, [4-(6-fluoro-pyridin-3-yl)-9H-fluoren-9-(R,S)-yl]-amide of 1H-pyrrolo[2,3-b]pyridine-4-carboxylic acid] |
| 1 to 10 |  | O=C(NC1c2ccccc2-c2c(-c3ccc(N4CCOCC4)nc3)cccc21)c1ccnc2[nH]ccc12 (racemic) [Example 14, [4-(2-morpholino-pyridin-5-yl)-9H-fluoren-9(R,S)-yl]-amide of 1H-pyrrolo[2,3-b]pyridine-4-carboxylic acid] |
| 1 to 10 | 260 | O=C(NC1c2ccccc2-c2c(-c3ccc4ccccc4n3)cccc21)c1ccnc2[nH]ccc12 (racemic) [Example 8, [4-(quinolin-2-yl)-9H-fluoren-9-(R,S)-yl]-amide of 1H-pyrrolo[2,3-b]pyridine-4-carboxylic acid] |
| 1 to 10 | 220 | O=C(NC1c2ccccc2-c2c(C(=O)n3ncc4ccccc43)cccc21)c1ccnc2[nH]ccc12 (racemic) [Example 16, [4-(indazole-1-carbonyl)-9H-fluoren-9(R,S)-yl]-amide of 1H-pyrrolo[2,3-b]pyridine-4-carboxylic acid] |
| < 1 |  | O=C(NC1c2ccccc2-c2c(-c3cnc4ccccc4c3)cccc21)c1c(Br)cnc2[nH]cnc12 (single isomer, unassigned) [Example 21] |
| < 1 | 270 | O=C(NC1c2ccccc2-c2c(-c3cn4ccccc4n3)cccc21)c1ccnc2[nH]ccc12 (racemic) [Example 19, 4-{imidazo[1,2-a]pyridin-2-yl}-9H-fluoren-9-(R,S)-yl-amide of 1H-pyrrolo[2,3-b]pyridine-4-carboxylic acid] |
| 1 to 10 |  | O=C(NC1c2ccccc2-c2c(-c3nc4ccccn4n3)cccc21)c1ccnc2[nH]ccc12 (racemic) [Example 9, (4-[1.2.4]triazolo[1,5-a]pyridin-2-yl-9H-fluoren-9(R,S)-yl)-amide of 1H-pyrrolo[2,3-b]pyridine-4-carboxylic acid] |
| 10 to 100 |  | O=C(NC1c2ccccc2-c2c(-c3cnc4ccccc4c3)cccc21)c1c(Br)cnc2[nH]cnc12 (single isomer, unassigned) [Example 20] |
| < 1 |  | O=C(NC1c2ccccc2-c2c(-c3cc4ccccc4[nH]3)cccc21)c1ccnc2[nH]ccc12 (racemic) [Example 5, [4-(1H-indol-2-yl)-9H-fluoren-9-(R,S)-yl]-amide of 1H-pyrrolo[2,3-b]pyridine-4-carboxylic acid] |
| 1 to 10 |  | Nc1ncc(Cl)c(C(=O)NC2c3ccccc3-c3c(-c4ncc[nH]4)cccc32)n1 (racemic) [Example 1, [4-(1H-imidazol-2-yl)-9H-fluoren-9(R,S)-yl]-amide of 2-amino-5-chloro-pyrimidine-4-carboxylic acid] |
| 1 to 10 | > 260 | O=C(NC1c2ccccc2-c2c(-c3cnc4ccccc4c3)cccc21)c1ccnc2[nH]ccc12 (racemic) [Example 3, [4-(quinolin-3-yl)-9H-fluoren-9(R,S)-yl)]-amide of 1H-pyrrolo[2,3-b]pyridine-4-carboxylic acid] |
| 1 to 10 |  | O=C(NC1c2ccccc2-c2c(-c3cnc4c(c3)CCCN4)cccc21)c1ccnc2[nH]ccc12 (racemic) [Example 18, [4-(5,6,7,8-tetrahydro-1,8-naphthyridin-3-yl)-9H-fluoren-9(R,S)-yl]-amide of 1H-pyrrolo[2,3-b]pyridine-4-carboxylic acid] |
